Experimental data taken from the supplement of paper PMC11061612.

How the values were obtained:
[1] = system: ML-2 (Acute Myeloid Leukemia); test: combination Emax (second highest fraction inhibited in the dose matrix, 72 h); higher = more inhibition; extreme values may be limits of the assay
Summary of the method: (§1)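 After 24 hours at 37°C and 5% CO2 in 1536-well plates, cells in DMEM/F12 or RPMI plus 10% FBS received two-drug dose matrices for 72 hours. Viability came from CellTiter-Glo 2.0 luminescence and was scaled as inhibition, anchored at 0 by vehicle wells and at 1 by blank wells. Combination Emax is taken as the second-highest inhibition in the matrix, and Bliss excess as the observed combination effect less EA + EB − EA·EB, with EA and EB the single-agent effects.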

[2] = system: HAL-01 (B-Lymphoblastic Leukemia); test: as above
Summary of the method: as §1

[3] = system: SW982 (Other Solid Carcinomas); test: as above
Summary of the method: as §1

[4] = system: OE33 (Esophageal Adenocarcinoma); test: as above
Summary of the method: as §1

[5] = system: SNU-387 (Hepatocellular Carcinoma); test: as above
Summary of the method: as §1

[6] = system: MV-4-11 (Acute Myeloid Leukemia); test: as above
Summary of the method: as §1

COLO-679 (Melanoma) = test: as above
Summary of the method: as §1

[7] = system: COLO-668 (Small Cell Lung Carcinoma); test: as above
Summary of the method: as §1

[8] = system: Ca-Ski (Cervical Carcinoma); test: as above
Summary of the method: as §1

[9] = system: SK-LU-1 (Lung Adenocarcinoma); test: Bliss excess, mean over the matrix (fraction); higher = more synergy
Summary of the method: as §1

[10] = system: G-401 (Other Solid Carcinomas); test: as above
Summary of the method: as §1

[11] = system: LC-1-sq (Squamous Cell Lung Carcinoma); test: as above
Summary of the method: as §1

[12] = system: HCC1500 (Breast Carcinoma); test: as above
Summary of the method: as §1

[13] = system: HCC1937 (Breast Carcinoma); test: as above
Summary of the method: as §1

[14] = system: KOPN-8 (B-Lymphoblastic Leukemia); test: as above
Summary of the method: as §1

[15] = system: NCI-H650 (Lung Adenocarcinoma); test: as above
Summary of the method: as §1

[16] = system: NCI-H1838 (Lung Adenocarcinoma); test: as above
Summary of the method: as §1

[17] = system: EJM (Plasma Cell Myeloma); test: as above
Summary of the method: as §1

EW-1 (Ewing's Sarcoma) = test: as above
Summary of the method: as §1

[18] = system: OACM5-1 (Esophageal Adenocarcinoma); test: as above
Summary of the method: as §1
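Throughout, for Bliss excess, mean over the matrix: after 72 h of two-drug dosing.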

Row | SMILES | combination Emax [1] | combination Emax [2] | combination Emax [3] | combination Emax [4] | combination Emax [5] | combination Emax [6] | combination Emax (COLO-679 (Melanoma)) | combination Emax [7] | combination Emax [8] | Bliss excess [9] | Bliss excess [10] | Bliss excess [11] | Bliss excess [12] | Bliss excess [13] | Bliss excess [14] | Bliss excess [15] | Bliss excess [16] | Bliss excess [17] | Bliss excess (EW-1 (Ewing's Sarcoma)) | Bliss excess [18]
1 | CN(CCO)CC[C@H](CSc1ccccc1)Nc1ccc(S(=O)(=O)NC(=O)c2ccc(N3CCC([C@@H](O)c4ccccc4-c4ccc(Cl)cc4)CC3)cc2)cc1S(=O)(=O)C(F)(F)F [AZD4320] + CC(=O)O[C@H]1C(=O)[C@@]2(C)[C@H]([C@H](OC(=O)c3ccccc3)[C@]3(O)C[C@H](OC(=O)[C@H](O)[C@@H](NC(=O)c4ccccc4)c4ccccc4)C(C)=C1C3(C)C)[C@]1(OC(C)=O)CO[C@@H]1C[C@@H]2O [Paclitaxel] (first compound max 1 µM, 7x7, partner max 3 µM) | 1 | 0.999 | 1 | 0.678 | 1 | 1 | 0.651 | 0.998 | 1 | 0.116 |  |  |  |  |  |  |  |  |  | 
2 | CN(CCO)CC[C@H](CSc1ccccc1)Nc1ccc(S(=O)(=O)NC(=O)c2ccc(N3CCC([C@@H](O)c4ccccc4-c4ccc(Cl)cc4)CC3)cc2)cc1S(=O)(=O)C(F)(F)F [AZD4320] + C[C@@H](Nc1cc(F)cc(F)c1)c1cc(C(=O)N(C)C)cc2c(=O)cc(N3CCOCC3)oc12 [AZD8186] (first compound max 1 µM, 7x7, partner max 3 µM) | 0.999 | 0.935 | 0.928 | 0.229 | 0.419 | 1 | 0.256 | 0.977 | 0.509 |  | -0.101 | 0.022 | 0.016 | -0.008 | 0.0392 | 0.0081 | 0.0139 | 0.0837 | 0.0604 | 0.0343
3 | CN(CCO)CC[C@H](CSc1ccccc1)Nc1ccc(S(=O)(=O)NC(=O)c2ccc(N3CCC([C@@H](O)c4ccccc4-c4ccc(Cl)cc4)CC3)cc2)cc1S(=O)(=O)C(F)(F)F [AZD4320] + Cn1cnc2c(F)c(Nc3ccc(Br)cc3Cl)c(C(=O)NOCCO)cc21 [Selumetinib] (first compound max 1 µM, 7x7, partner max 3 µM) | 1 | 0.916 | 0.844 | 0.214 | 0.445 | 1 | 0.834 | 0.989 | 0.588 |  | 0.0907 | 0.0514 | 0.0166 | -0.0001 | 0.0821 | 0.119 | 0.0376 | 0.072 | 0.0387 | 0.0624
4 | CN(CCO)CC[C@H](CSc1ccccc1)Nc1ccc(S(=O)(=O)NC(=O)c2ccc(N3CCC([C@@H](O)c4ccccc4-c4ccc(Cl)cc4)CC3)cc2)cc1S(=O)(=O)C(F)(F)F [AZD4320] + Nc1ccn([C@@H]2O[C@H](CO)[C@@H](O)C2(F)F)c(=O)n1 [Gemcitabine] (first compound max 1 µM, 7x7, partner max 0.3 µM) | 1 | 1 | 1 | 0.586 | 0.218 | 1 | 0.851 | 0.966 | 0.91 | -0.036 |  |  |  |  |  |  |  |  |  | 
5 | Cc1cc2ncnn2cc1Nc1ncc2c(n1)n(C1CCOCC1)c(=O)n2C [AZD7648] + C=CCn1c(=O)c2cnc(Nc3ccc(N4CCN(C)CC4)cc3)nc2n1-c1cccc(C(C)(C)O)n1 [AZD1775] (first compound max 10 µM, partner max 1 µM) | 1 | 0.914 | 0.825 | 0.537 | 0.383 | 0.954 | 0.46 | 0.568 | 0.704 |  | -0.0029 | 0.0567 | 0.0414 | -0.0069 | -0.0472 | 0.0029 | -0.0149 | -0.012 | 0.0272 | -0.0206
6 | Cc1cc2ncnn2cc1Nc1ncc2c(n1)n(C1CCOCC1)c(=O)n2C [AZD7648] + CCN(CCO)CCCOc1ccc2c(Nc3cc(CC(=O)Nc4cccc(F)c4)[nH]n3)ncnc2c1 [AZD2811] (first compound max 10 µM, 7x7, partner max 1 µM) | 0.832 | 0.342 | 0.621 | 0.245 | 0.254 | 0.945 | 0.203 | 0.158 | 0.349 |  | -0.0176 | 0.0569 | 0.0507 | 0.0064 | 0.0713 | -0.0147 | -0.0491 | 0.0417 | 0.053 | -0.0151
7 | Cc1cc2ncnn2cc1Nc1ncc2c(n1)n(C1CCOCC1)c(=O)n2C [AZD7648] + CN(C)CCCOc1ccc(-c2ccc3ncc4c(c3c2)n(C2CCOCC2)c(=O)n4C)cn1 [AZD0156] (first compound max 10 µM, 7x7, partner max 1 µM) | 0.374 | 0.398 | 0.36 | 0.256 | 0.275 | 0.484 | 0.2 | 0.133 | 0.296 |  | 0.0335 | 0.03 | 0.0414 | -0.0129 | 0.0351 | 0.0061 | 0.0203 | 0.072 | 0.0734 | 0.0206
8 | Cc1cc2ncnn2cc1Nc1ncc2c(n1)n(C1CCOCC1)c(=O)n2C [AZD7648] + COc1cc([C@@H]2c3cc4c(cc3[C@@H](O[C@@H]3O[C@@H]5CO[C@@H](C)O[C@H]5[C@H](O)[C@H]3O)[C@H]3COC(=O)[C@H]23)OCO4)cc(OC)c1O [Etoposide] (first compound max 10 µM, 7x7, partner max 10 µM) | 0.955 | 1 | 0.861 | 0.504 | 0.22 | 1 | 0.588 | 0.862 | 0.884 | 0.0201 |  |  |  |  |  |  |  |  |  | 
9 | Cc1cc2ncnn2cc1Nc1ncc2c(n1)n(C1CCOCC1)c(=O)n2C [AZD7648] + C[C@@H]1COCCN1C2=NC(=NC(=C2)C3(CC3)[S@](=N)(=O)C)C4=C5C=CNC5=NC=C4 [AZD6738] (first compound max 10 µM, 7x7, partner max 10 µM) | 0.968 | 0.984 | 0.73 | 0.784 | 0.388 | 0.983 | 0.687 | 0.579 | 0.581 |  | -0.0143 | 0.0311 | 0.0489 | -0.0345 | -0.0187 | 0.0048 | -0.0062 | 0.0308 | 0.024 | 0.0198
10 | COc1cc2c(cc1OCCCCCOc1cc3c(cc1OC)C(=O)N1C=C(C)C[C@H]1C=N3)N=C[C@@H]1CC(C)=CN1C2=O [SG3199] + O=C(c1cc(Cc2n[nH]c(=O)c3ccccc23)ccc1F)N1CCN(C(=O)C2CC2)CC1 [Olaparib] (first compound max 0.001 µM, 7x7, partner max 10 µM) | 0.436 | 0.215 | 0.43 | 0.0504 | 0.104 | 0.402 | 0.108 | 0.163 | 0.0833 |  | -0.0211 | -0.0029 | -0.0144 | -0.0623 | -0.0265 | -0.0206 | -0.0795 | -0.0198 | 0.0403 | -0.0313
11 | N#Cc1cnc(Nc2cc(NC[C@H]3CNCCO3)c(C(F)(F)F)cn2)cn1 [SRA737] + C=CCn1c(=O)c2cnc(Nc3ccc(N4CCN(C)CC4)cc3)nc2n1-c1cccc(C(C)(C)O)n1 [AZD1775] (first compound max 10 µM, partner max 1 µM) | 1 | 1 | 0.759 | 0.765 | 0.465 | 0.931 | 0.806 | 0.748 | 0.846 | 0.0096 |  |  |  |  |  |  |  |  |  | 
12 | N#Cc1cnc(Nc2cc(NC[C@H]3CNCCO3)c(C(F)(F)F)cn2)cn1 [SRA737] + CCc1c2c(nc3ccc(O)cc13)-c1cc3c(c(=O)n1C2)COC(=O)[C@]3(O)CC [SN-38] (first compound max 10 µM, 7x7, partner max 0.3 µM) | 1 | 1 | 0.829 | 0.8 | 0.548 | 0.996 | 0.723 | 0.953 | 0.992 | -0.0943 |  |  |  |  |  |  |  |  |  | 
13 | N#Cc1cnc(Nc2cc(NC[C@H]3CNCCO3)c(C(F)(F)F)cn2)cn1 [SRA737] + Nc1ccn([C@@H]2O[C@H](CO)[C@@H](O)C2(F)F)c(=O)n1 [Gemcitabine] (first compound max 10 µM, 7x7, partner max 0.3 µM) | 1 | 1 | 0.905 | 0.678 | 0.663 | 1 | 0.828 | 0.84 | 0.815 | -0.101 |  |  |  |  |  |  |  |  |  | 
14 | N#Cc1cnc(Nc2cc(NC[C@H]3CNCCO3)c(C(F)(F)F)cn2)cn1 [SRA737] + O=c1[nH]cc(F)c(=O)[nH]1 [5-Fluorouracil] (first compound max 10 µM, 7x7, partner max 20 µM) | 0.963 | 1 | 0.679 | 0.721 | 0.364 | 0.967 | 0.7 | 0.483 | 0.862 | -0.0137 |  |  |  |  |  |  |  |  |  | 
